One may read the IC50 as the point on the concentration scale where inhibition reaches its midpoint. As a reminder, the MIC is the least concentration at which growth counts as inhibited. The low end stands for a more susceptible organism, the high end for a less susceptible organism.

Values after ≈ are worked out from the molar mass of the structure shown. “Also recorded” adds a separate entry of the source.

Data set [1] has as its system Salmonella typhimurium TA98 and TA100. Put plainly: Mini-AMES. Format: cell-based. As to conditions: @62.25 µg mL^−1 (147 × 10^−6 M); also in presence of rat liver S9 fractions. On the procedure:
P2X4 receptor (human P2RX4 gene) expressed in HEK293 cells >30
TRPA1 channel (human TRPA1 gene) expressed in CHO cells >30
TRPC6 channel (human TRPC6 gene) expressed in HEK293 cells >30
TRPV1 channel (human TRPV1 gene) expressed in HEK293 cells >30
TRPV4 channel (human TRPV4 gene) expressed in CHO cells >30
1.4.4 Pharmacokinetic and off-target functional assays (Cyprotex)
Compound 24 was assayed at Cyprotex in functional assays for interference with important off-targets as well as important pharmacokinetic parameters. With the exception of plasma protein binding, a dose-response relationship was studied in order to calculate IC50 values.
Table S10. Information on in vitro ADMET assays performed at Cyprotex. […]
Approximately ten million bacteria were exposed in triplicate to 24 (1.9, 3.9, 7.8, 15.6, 31.2, 62.5 µg/mL), a negative control (vehicle) and positive controls for 90 min in medium containing a low concentration of histidine (sufficient for about 2 doublings.) The cultures were then diluted into indicator medium lacking histidine, and dispensed into 48 wells of 384-well plates (micro-plate format, MPF). […] The wells showing growth were counted and compared to the vehicle control. […]
The maximum tolerated dose of 24 in NMRI mice was conducted and analyzed at CRO ATRC Aurigon Toxicological Research Center Ltd, Hungary. […]

Data set [2] has as its target T1, TRPV1 channel (Homo sapiens, UniProt Q8NER1).
T1 construct: host or cells: HEK293 cells
Put plainly: Ion channel profiling at Charles River: TRPV1. It is filed as cell-based. The conditions noted are these: expressed in HEK293 cells; read-out: ESTIMATED IC50. As for the experimental part:
1.4.3 Ion Channel Profiling at Charles River
Table S9. Compound 24 was tested against the following ion channels at Charles River Laboratories. […]
FLIPR Assay expressed in HEK293 cells
GABAA α5/β3/γ2 ionotropic receptor (human GABRA5, GABRB3, >30 and GABRG2 genes, expressed in HEK293 cells […]
TRPV1 channel (human TRPV1 gene) expressed in HEK293 cells >30 […]
An increase in the number of colonies of at least two-fold over baseline (mean + SD of the vehicle control) and a dose response indicate a positive response. An […]
different from the vehicle control.
Where indicated, S9 fraction from the livers of Aroclor 1254-treated rats were included in the incubation at a final concentration of 4.5%. A NADPH-regenerating system was also included to ensure a steady supply of reducing equivalents.

Data set [3] is described as follows: SafetyScreen44 (Eurofins), whole panel. As to conditions: at 10 × 10^−6 M. On the procedure:
1.4 Safety Pharmacology of Compound 24
1.4.1 Cerep panel (Eurofins)
Compound 24 was further profiled for its off-target interactions against a panel of 44 targets. The screening was done by Eurofins Pharma Discovery within the SafetyScreen44 Panel (Cerep, ITEM P270). In all assays binding/functional inhibition was determined at 10 µM.
Table S6. List of binding assays within the CEREP44 off-target panel and binding data for compound […]
Ca2+ channel (L, dihydropyridine site) (antagonist radioligand) 75.3
Norepinephrine transporter (h) (antagonist radioligand) 74.7
Potassium Channel hERG (human) [3H] Dofetilide 73.1 […]
5-HT transporter (h) (antagonist radioligand) 49.8 […]
MAO-A (antagonist radioligand) 24.9 kappa (h) (KOP) (agonist radioligand) 23.6 dopamine transporter (h) (antagonist radioligand) 22.7 […]
KV channel (antagonist radioligand) 14.2 […]
5-HT1A (h) (agonist radioligand) 11.3 alpha2A (h) (antagonist radioligand) 8.4 […]

The test system of data set [4] is Bronchiectasis clinical isolates, PA14 and PAO1. Description: Antimicrobial minimal inhibitory concentrations (MIC), microdilution. As to conditions: Pseudomonas aeruginosa.

T1 sequence (Q8NER1 whole entry): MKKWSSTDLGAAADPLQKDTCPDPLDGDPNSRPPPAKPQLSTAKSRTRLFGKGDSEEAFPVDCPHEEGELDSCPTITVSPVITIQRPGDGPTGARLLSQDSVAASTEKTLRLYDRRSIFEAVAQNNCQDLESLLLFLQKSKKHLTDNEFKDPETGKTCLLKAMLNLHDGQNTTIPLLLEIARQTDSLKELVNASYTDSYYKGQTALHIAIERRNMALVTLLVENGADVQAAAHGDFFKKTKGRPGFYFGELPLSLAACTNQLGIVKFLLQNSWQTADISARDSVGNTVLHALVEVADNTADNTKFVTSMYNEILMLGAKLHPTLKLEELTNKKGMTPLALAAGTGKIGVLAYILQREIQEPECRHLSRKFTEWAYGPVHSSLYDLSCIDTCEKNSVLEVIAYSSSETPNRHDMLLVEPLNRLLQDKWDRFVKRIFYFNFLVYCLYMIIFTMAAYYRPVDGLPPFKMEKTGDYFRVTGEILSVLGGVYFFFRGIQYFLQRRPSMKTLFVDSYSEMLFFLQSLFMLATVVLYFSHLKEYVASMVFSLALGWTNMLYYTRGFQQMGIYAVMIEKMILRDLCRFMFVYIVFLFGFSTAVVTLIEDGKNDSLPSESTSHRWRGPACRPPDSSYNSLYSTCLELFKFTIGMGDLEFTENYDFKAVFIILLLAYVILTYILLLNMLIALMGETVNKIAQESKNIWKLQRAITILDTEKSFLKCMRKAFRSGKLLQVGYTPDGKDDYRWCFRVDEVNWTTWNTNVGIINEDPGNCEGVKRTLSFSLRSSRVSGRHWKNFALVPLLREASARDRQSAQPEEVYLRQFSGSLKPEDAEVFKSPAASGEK

As for `CC(C)Oc1ccc(-c2ncc(CNc3ccnc(C(F)(F)F)c3)cn2)cc1Cl` [Compound 24], the “Mini‐AMES genotoxicity” value in data set [1] was “no genotoxicity; also recorded: Negative @62.25 µg mL^−1 (147 × 10^−6 M)”. The IC50 in data set [2] is over 30 µM. Besides, in data set [3], the “effects on any target of SafetyScreen44” value is recorded as at most 80%.

Consider `NC[C@H]1O[C@H](O[C@H]2[C@H](O)[C@@H](O[C@H]3O[C@H](CO)[C@@H](O)[C@H](N)[C@H]3O)[C@H](N)C[C@@H]2N)[C@H](N)C[C@@H]1O` [Tobramycin, tobramycin], for which the MIC in data set [4] (PA14|PAO1, strain column 1 of 16 (strain heads not assignable)) was 1 µg/mL (≈ 2.14 µM); in data set [4] (strain column 2 of 16), 1 µg/mL (≈ 2.14 µM); in data set [4] (strain column 3 of 16) it was at most 0.5 µg/mL; in data set [4] (strain column 4 of 16) it was at most 0.5 µg/mL; in data set [4] (strain column 5 of 16), at most 0.5 µg/mL; in data set [4] (strain column 6 of 16), at most 0.5 µg/mL. The MIC in data set [4] (strain column 7 of 16) was at most 0.5 µg/mL; in data set [4] (strain column 8 of 16), 2 µg/mL (≈ 4.28 µM); in data set [4] (strain column 9 of 16) it was 1 µg/mL (≈ 2.14 µM); in data set [4] (strain column 10 of 16), at most 0.5 µg/mL; in data set [4] (strain column 11 of 16) it was at most 0.5 µg/mL; in data set [4] (strain column 12 of 16) it was at most 0.5 µg/mL. In addition, the MIC in data set [4] (strain column 13 of 16), in data set [4] (strain column 14 of 16), in data set [4] (strain column 15 of 16) and in data set [4] (strain column 16 of 16) was at most 0.5 µg/mL throughout.

(Values after article PMC9929129, “Towards Translation of PqsR Inverse Agonists: From In Vitro Efficacy Optimization to In Vivo Proof‐of‐Principle” (Advanced Science, 2023).)
